Structures can show the parent of a compound that is named as a salt.
target: T1, human cloned dopamine D4.2 receptors (Homo sapiens, UniProt P21917, DEL265-296); experiment: Inhibition of the binding of [3H]YM-09151-2 to human dopamine D4 receptors; conditions: [3H]YM-09151-2 0.06 nM, membranes of CHO cells; read-out: D4-bind. IC50
T1 construct: expressed in transfected cells; host or cells: CHO cells (membranes)
T1 sequence (P21917 with tags, fused parts or gaps DEL265-296): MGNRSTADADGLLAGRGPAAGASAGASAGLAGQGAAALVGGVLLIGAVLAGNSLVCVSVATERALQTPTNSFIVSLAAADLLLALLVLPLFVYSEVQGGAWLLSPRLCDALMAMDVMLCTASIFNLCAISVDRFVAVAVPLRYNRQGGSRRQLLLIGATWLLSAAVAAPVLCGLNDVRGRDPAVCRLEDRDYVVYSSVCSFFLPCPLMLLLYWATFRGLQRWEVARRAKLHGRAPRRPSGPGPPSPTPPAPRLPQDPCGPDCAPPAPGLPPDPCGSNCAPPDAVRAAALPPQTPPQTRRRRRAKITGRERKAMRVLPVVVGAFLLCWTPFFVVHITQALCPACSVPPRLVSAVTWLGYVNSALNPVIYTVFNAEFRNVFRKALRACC
Method: Inhibition of the Binding of [^3H]YM-09151-2 to Human Dopamine D4 Receptors
By this method, the inhibition by drugs of the binding of [^3H]YM-09151-2 (0.06 nM) to membranes of human cloned dopamine D4.2 receptors expressed in CHO-cells is determined in vitro. Method modified from NEN Life Science Products, Inc., technical data certificate PC2533-10/96.

In order of rising IC50:
1. Fc1ccc2[nH]cc(C3=CCN(CCCN4CCCc5ccccc54)CC3)c2c1 [Compound 9l, 5-Fluoro-3-{1-[3-(3,4-dihydro-2H-quinolin-1-yl)propan-1-yl]-3,6-dihydro-2H-pyridin-4-yl}-1H-indole]  0.51 nM
2. O=C1CCc2ccccc2N1CCCN1CCC(c2c[nH]c3ccc(F)cc23)CC1 [Compound 2a, 5-Fluoro-3-{1-[3-(2-oxo-3,4-dihydro-2H-quinolin-1-yl)propan-1-yl]piperidin-4-yl}-1H-indole]  0.58 nM
3. O=C1CCc2ccccc2N1CCCN1CCC(c2c[nH]c3ccc(Cl)cc23)CC1 [Compound 2c, 5-Chloro-3-{1-[3-(2-oxo-3,4-dihydro-2H-quinolin-1-yl)propan-1-yl]piperidin-4-yl}-1H-indole]  0.69 nM
4. O=C1CCc2ccccc2N1CCCN1CC=C(c2c[nH]c3ccc(F)cc23)CC1 [Compound 3a, 5-Fluoro-3-{1-[3-(2-oxo-3,4-dihydro-2H-quinolin-1-yl)propan-1-yl]-3,6-dihydro-2H-pyridin-4-yl}-1H-indole]  0.71 nM
5. O=C1CCc2ccccc2N1CCCCN1CCC(c2c[nH]c3ccc(F)cc23)CC1 [Compound 4, 5-Fluoro-3-{1-[4-(2-oxo-3,4-dihydro-2H-quinolin-1-yl)butan-1-yl]piperidin-4-yl}-1H-indole]  4.8 nM
6. O=C1CCc2ccccc2N1CCCCN1CC=C(c2c[nH]c3ccc(F)cc23)CC1 [Compound 3b, 5-Fluoro-3-{1-[4-(2-oxo-3,4-dihydro-2H-quinolin-1-yl)butan-1-yl]-3,6-dihydro-2H-pyridin-4-yl}-1H-indole]  5 nM
7. O=C1COc2ccccc2N1CCCCN1CCC(c2c[nH]c3ccc(F)cc23)CC1 [Compound 2g, 5-Fluoro-3-{1-[4-(3-oxo-3,4-dihydro-2H-1,4-benzoxazin-4-yl)butan-1-yl]piperidin-4-yl}-1H-indole]  7.5 nM
8. O=C1CCc2ccccc2N1CCCCN1CCC(c2c[nH]c3ccc(Cl)cc23)CC1 [Compound 2d, 5-Chloro-3-{1-[4-(2-oxo-3,4-dihydro-2H-quinolin-1-yl)butan-1-yl]piperidin-4-yl}-1H-indole]  8 nM
9. O=C1COc2ccccc2N1CCCCN1CCC(c2c[nH]c3ccc(Cl)cc23)CC1 [Compound 2h, 5-Chloro-3-{1-[4-(3-oxo-3,4-dihydro-2H-1,4-benzoxazin-4-yl)butan-1-yl]piperidin-4-yl}-1H-indole]  10 nM
10. O=C1CCc2ccccc2N1CCCCCN1CCC(c2c[nH]c3ccc(F)cc23)CC1 [Compound 2b, 5-Fluoro-3-{1-[5-(2-oxo-3,4-dihydro-2H-quinolin-1-yl)pentan-1-yl]piperidin-4-yl}-1H-indole]  12 nM
11. O=C1CCc2ccccc2N1CCCCCN1CCC(c2c[nH]c3ccc(Cl)cc23)CC1 [Compound 2e, 5-Chloro-3-{1-[5-(2-oxo-3,4-dihydro-2H-quinolin-1-yl)pentan-1-yl]piperidin-4-yl}-1H-indole]  12 nM
12. O=C1CCc2ccccc2N1CCCCCN1CC=C(c2c[nH]c3ccc(F)cc23)CC1 [Compound 3c, 5-Fluoro-3-{1-[5-(2-oxo-3,4-dihydro-2H-quinolin-1-yl)pentan-1-yl]-3,6-dihydro-2H-pyridin-4-yl}-1H-indole]  15 nM
13. Fc1ccc2[nH]cc(C3=CCN(CCCCN4CCCc5ccccc54)CC3)c2c1 [Compound 9m, 5-Fluoro-3-{1-[4-(3,4-dihydro-2H-quinolin-1-yl)butan-1-yl]-3,6-dihydro-2H-pyridin-4-yl}-1H-indole]  17 nM
14. Fc1ccc2[nH]cc(C3=CCN(CCCCCN4CCCc5ccccc54)CC3)c2c1 [Compound 9n, 5-Fluoro-3-{1-[5-(3,4-dihydro-2H-quinolin-1-yl)pentan-1-yl]-3,6-dihydro-2H-pyridin-4-yl}-1H-indole]  53 nM

same assay, conditions: at 50 nM compound; [3H]YM-09151-2 0.06 nM, membranes of CHO cells

In order of rising “D4-bind. % inhibition of binding at 50 nM” value:
1. O=C(CCCCN1CCC(c2c[nH]c3c(Cl)cccc23)CC1)N1CCc2ccccc2C1 [Compound 10l]  82%
2. O=C1c2ccccc2CCN1CCCCN1CCC(c2c[nH]c3ccc(F)cc23)CC1 [Compound 1c]  95%
3. O=C1c2ccccc2CCN1CCCN1CCC(c2c[nH]c3ccc(F)cc23)CC1 [Compound 1b]  97%

same assay, conditions: at 50 nM compound; [3H]YM-09151-2 0.06 nM, membranes of CHO cells; read-out: D4-bind. % inhibition of binding at 50 nM

In order of rising inhibition at 0.05 µM:
1. O=C(CCCCCN1CCC(c2c[nH]c3cccc(Cl)c23)CC1)N1CCc2ccccc2C1 [Compound 10f, 4-Chloro-3-{1-[6-(3,4-dihydro-1H-isoquinolin-2-yl)-6-oxohexan-1-yl]piperidin-4-yl}-1H-indole]  17%
2. O=C(CCCCCN1CCC(c2c[nH]c3cccc(F)c23)CC1)N1CCc2ccccc2C1 [Compound 10c, 4-Fluoro-3-{1-[6-(3,4-dihydro-1H-isoquinolin-2-yl)-6-oxohexan-1-yl]piperidin-4-yl}-1H-indole]  21%
3. O=C(CCCCN1CCC(c2c[nH]c3cccc(Cl)c23)CC1)N1CCc2ccccc2C1 [Compound 10e, 4-Chloro-3-{1-[5-(3,4-dihydro-1H-isoquinolin-2-yl)-5-oxopentan-1-yl]piperidin-4-yl}-1H-indole]  25%
4. O=C(CCCCCN1CCC(c2c[nH]c3ccc(F)cc23)CC1)N1CCc2ccccc2C1 [Compound 10h, 5-Fluoro-3-{1-[6-(3,4-dihydro-1H-isoquinolin-2-yl)-6-oxohexan-1-yl]piperidin-4-yl}-1H-indole]  50%
5. O=C(CCCCN1CCC(c2c[nH]c3ccc(F)cc23)CC1)N1CCc2ccccc2C1 [Compound 10g, 5-Fluoro-3-{1-[5-(3,4-dihydro-1H-isoquinolin-2-yl)-5-oxopentan-1-yl]piperidin-4-yl}-1H-indole]  65%
6. O=C(CCCCCN1CCC(c2c[nH]c3c(Cl)cccc23)CC1)N1CCc2ccccc2C1 [Compound 10m, 7-Chloro-3-{1-[6-(3,4-dihydro-1H-isoquinolin-2-yl)-6-oxohexan-1-yl]piperidin-4-yl}-1H-indole]  69%
7. O=C(CCCCCN1CCC(c2c[nH]c3cc(Cl)ccc23)CC1)N1CCc2ccccc2C1 [Compound 10j, 6-Chloro-3-{1-[6-(3,4-dihydro-1H-isoquinolin-2-yl)-6-oxohexan-1-yl]piperidin-4-yl}-1H-indole]  70%
8. O=C1CCc2ccccc2N1CCCCN1CCC(c2c[nH]c3c(Cl)cccc23)CC1 [Compound 2f, 7-Chloro-3-{1-[4-(2-oxo-3,4-dihydro-2H-quinolin-1-yl)butan-1-yl]piperidin-4-yl}-1H-indole]  78%
9. O=C(CCCN1CCC(c2c[nH]c3cccc(F)c23)CC1)N1CCc2ccccc2C1 [Compound 10b, 4-Fluoro-3-{1-[4-(3,4-dihydro-1H-isoquinolin-2-yl)-4-oxobutan-1-yl]piperidin-4-yl}-1H-indole]  81%
10. O=C(CCCN1CCC(c2c[nH]c3cccc(Cl)c23)CC1)N1CCc2ccccc2C1 [Compound 10d, 4-Chloro-3-{1-[4-(3,4-dihydro-1H-isoquinolin-2-yl)-4-oxobutan-1-yl]piperidin-4-yl}-1H-indole]  86%
11. O=C1CCc2ccccc2N1CCN1CCC(c2c[nH]c3ccc(F)cc23)CC1 [Compound 1a, 5-Fluoro-3-{1-[2-(2-oxo-3,4-dihydro-2H-quinolin-1-yl)ethyl]piperidin-4-yl}-1H-indole]  92%
12. O=C(CCN1CCC(c2c[nH]c3cccc(F)c23)CC1)N1CCc2ccccc2C1 [Compound 10a, 4-Fluoro-3-{1-[3-(3,4-dihydro-1H-isoquinolin-2-yl)-3-oxopropan-1-yl]piperidin-4-yl}-1H-indole]  93%
13. O=C(CCN1CCC(c2c[nH]c3cc(Cl)ccc23)CC1)N1CCc2ccccc2C1 [Compound 10i, 6-Chloro-3-{1-[3-(3,4-dihydro-1H-isoquinolin-2-yl)-3-oxopropan-1-yl]piperidin-4-yl}-1H-indole]  94%
14. O=C(CCCN1CCC(c2c[nH]c3c(Cl)cccc23)CC1)N1CCc2ccccc2C1 [Compound 10k, 7-Chloro-3-{1-[4-(3,4-dihydro-1H-isoquinolin-2-yl)-4-oxobutan-1-yl]piperidin-4-yl}-1H-indole]  95%

system: not given; experiment: not given; conditions: not given

Compared with `O=C1CCc2ccccc2N1CCCCN1CCC(c2c[nH]c3ccc(F)cc23)CC1` (as salt: hydrochloride) [Compound 4, 5-Fluoro-3-{1-[4-(2-oxo-3,4-dihydro-2H-quinolin-1-yl)butan-1-yl]piperidin-4-yl}-1H-indole], `O=C(CCCN1CCC(c2c[nH]c3ccc(F)cc23)CC1)N1CCc2ccccc2C1` [Compound 7, 5-Fluoro-3-{1-[4-(3,4-dihydro-1H-isoquinolin-2-yl)-4-oxobutan-1-yl]piperidin-4-yl}-1H-indole] is lower in melting point: 212 to 213 °C for the first, 146 to 148 °C for the second.

With `O=C1CCc2ccccc2N1CCCN1CC=C(c2c[nH]c3ccc(F)cc23)CC1` (as salt: oxalate) [Compound 3a, 5-Fluoro-3-{1-[3-(2-oxo-3,4-dihydro-2H-quinolin-1-yl)propan-1-yl]-3,6-dihydro-2H-pyridin-4-yl}-1H-indole] the melting point was 220 to 223 °C.

From US7276508B2, “Indole derivatives useful for the treatment of CNS disorders” (H. Lundbeck A/S, priority 2000, dated 2007)
